Values quoted from earlier work in US12533416B2, “Krill oil for solubilizing poorly water-soluble dietary supplements and pharmaceutically active agents” (ID CARE UG (haftungsbeschränkt), priority 2018, dated 2026).

Details: Class 4 = low solubility

Row | SMILES | BCS class (solubility / permeability)
1 | Nc1nc2c(ncn2COCCO)c(=O)[nH]1 [Aciclovir, aciclovir] | BCS Class 4
2 | CC[C@H]1OC(=O)[C@H](C)[C@@H](O[C@H]2C[C@@](C)(OC)[C@@H](O)[C@H](C)O2)[C@H](C)[C@@H](O[C@@H]2O[C@H](C)C[C@H](N(C)C)[C@H]2O)[C@](C)(O)C[C@@H](C)CN(C)[C@H](C)[C@@H](O)[C@]1(C)O [Azithromycin, azithromycin] | BCS Class 4
